From ChEMBL document CHEMBL3046853, “Synthesis, antimicrobial evaluation, ot-QSAR and mt-QSAR studies of 2-amino benzoic acid derivatives” (2012) come the findings set out here.

Assay [1] has as its system Staphylococcus aureus. The assay is described as follows: Bactericidal activity against Staphylococcus aureus. In kind it is functional, organism-based.
Assay [2] deals with Staphylococcus aureus. The assay is described as follows: Antibacterial activity against Staphylococcus aureus after 24 hr by serial dilution technique. The class given is functional.
The test system of assay [3] is Aspergillus niger. The assay is described as follows: Antifungal activity against Aspergillus niger after 7 days by serial dilution technique. In kind it is functional.
Assay [4] relates to Bacillus subtilis. The assay is described as follows: Antibacterial activity against Bacillus subtilis after 24 hr by serial dilution technique. The class given is functional.
The subject of assay [5] is Escherichia coli. Put plainly: Bactericidal activity against Escherichia coli. The class given is functional, organism-based.
Assay [6] relates to Candida albicans. The assay is described as follows: Antifungal activity against Candida albicans after 2 days by serial dilution technique. The class given is functional.
The test system of assay [7] is Aspergillus niger. Put plainly: Fungicidal activity against Aspergillus niger after 7 days by serial dilution technique. The class given is functional, organism-based.
For assay [8], the system named is Escherichia coli. Put plainly: Antibacterial activity against Escherichia coli after 24 hr by serial dilution technique. The class given is functional.
Assay [9] deals with Bacillus subtilis. The assay is described as follows: Bactericidal activity against Bacillus subtilis. In kind it is functional, organism-based.
Assay [10] relates to Candida albicans. Put plainly: Fungicidal activity against Candida albicans. The class given is functional, organism-based.

Calls of active or inactive are those of the source. The calls are words filed in the database; no cut-off is given here.

Regarding `Cc1cccc(NC(=O)c2ccccc2N)c1`, the result in the assay on Staphylococcus aureus [1], with Escherichia coli [5], with Aspergillus niger [7], in the assay with Bacillus subtilis [9] and with Candida albicans [10] was Active. Moreover, the “-logMIC” value was 1.26 in the assay with Staphylococcus aureus [2]; 1.26 with Aspergillus niger [3]; 2.16 in the assay on Bacillus subtilis [4]; 1.26 in the assay with Candida albicans [6]; 1.26 in the assay on Escherichia coli [8].
As for `CCOC(=O)c1ccccc1N` [ETHYL ANTHRANILATE], the outcome in the assay on Staphylococcus aureus [1], in the assay with Escherichia coli [5], with Aspergillus niger [7], with Bacillus subtilis [9] and with Candida albicans [10] was Active. The “-logMIC” value in the assay on Staphylococcus aureus [2] was 1.12; with Aspergillus niger [3] it was 1.72; in the assay on Bacillus subtilis [4] it was 1.91; in the assay with Candida albicans [6], 1.12; with Escherichia coli [8], 1.72.
Regarding `Nc1ccccc1C(=O)Nc1ccc(F)c(Cl)c1`, the result in the assay on Staphylococcus aureus [1], in the assay on Escherichia coli [5], in the assay on Aspergillus niger [7], with Bacillus subtilis [9] and in the assay with Candida albicans [10] was Active. Further, the “-logMIC” value came out at 1.33 in the assay with Staphylococcus aureus [2]; 1.02 with Aspergillus niger [3]; 2.23 in the assay on Bacillus subtilis [4]; 1.33 in the assay on Candida albicans [6]; 1.33 in the assay on Escherichia coli [8].
As for `CCCCCCCOC(=O)c1ccccc1N` [HEPTYL 2-AMINOBENZOATE], the outcome in the assay with Staphylococcus aureus [1], in the assay on Escherichia coli [5], in the assay on Aspergillus niger [7], with Bacillus subtilis [9] and in the assay with Candida albicans [10] was Active. Besides, the “-logMIC” value with Staphylococcus aureus [2] amounted to 1.27; with Aspergillus niger [3], 1.58; in the assay on Bacillus subtilis [4], 1.88; with Candida albicans [6] it was 1.58; with Escherichia coli [8], 1.88.
In the case of `CCCCCCOC(=O)c1ccccc1N` [HEXYL 2-AMINOBENZOATE], the result in the assay with Staphylococcus aureus [1], in the assay on Escherichia coli [5], in the assay with Aspergillus niger [7], in the assay with Bacillus subtilis [9] and in the assay on Candida albicans [10] was Active. Moreover, the “-logMIC” value with Staphylococcus aureus [2] was determined as 1.25; in the assay with Aspergillus niger [3], 1.85; with Bacillus subtilis [4] it was 2.15; with Candida albicans [6] it was 1.25; in the assay with Escherichia coli [8], 1.85.
For `CCCNC(=O)c1ccccc1N`, the outcome with Staphylococcus aureus [1], with Escherichia coli [5], in the assay on Aspergillus niger [7], in the assay on Bacillus subtilis [9] and with Candida albicans [10] was Active. Further, the “-logMIC” value in the assay on Staphylococcus aureus [2] is reported as 1.15; with Aspergillus niger [3], 1.15; in the assay on Bacillus subtilis [4] it was 2.06; in the assay with Candida albicans [6] it was 1.12; with Escherichia coli [8], 1.46.
With `CCCCN(CCCC)C(=O)c1ccccc1N`, the result with Staphylococcus aureus [1], in the assay on Escherichia coli [5], in the assay with Aspergillus niger [7], in the assay on Bacillus subtilis [9] and in the assay on Candida albicans [10] was Active. In addition, the “-logMIC” value in the assay on Staphylococcus aureus [2] worked out at 1.3; with Aspergillus niger [3], 1.6; in the assay with Bacillus subtilis [4], 2.2; with Candida albicans [6] it was 1.3; in the assay with Escherichia coli [8], 1.6.
On to `COc1ccc(NC(=O)c2ccccc2N)cc1`, for which the result in the assay with Staphylococcus aureus [1], with Escherichia coli [5], in the assay on Aspergillus niger [7], with Bacillus subtilis [9] and with Candida albicans [10] was Active. The “-logMIC” value with Staphylococcus aureus [2] is reported as 1.29; with Aspergillus niger [3] it was 1.29; in the assay on Bacillus subtilis [4] it was 2.19; in the assay on Candida albicans [6], 1.29; in the assay with Escherichia coli [8], 1.29.
